Reference: patent publication US10759796B2, “CXCR4 inhibitors and uses thereof” (X4 Pharmaceuticals, Inc., priority 2016, dated 2020)

How the values were obtained:
[1] = target: CXCR-4 transfected U87 cell line (U87.CXCR4) (Homo sapiens (Human), UniProt P61073); assay: Intracellular CXCL-12-induced calcium mobilization assay (FLIPR); type: cell-based; details: U87.CXCR4 cells, CXCL-12 25-50 ng/mL; read-out: IC50 CXCL-12 Ca2+ flux U87.CXCR4+
Method: Example 28: REGA Screening Assay
Intracellular CXCL-12-Induced Calcium Mobilization Assay
Intracellular calcium mobilization induced by chemokines or chemokine-derived peptides were evaluated using a calcium responsive fluorescent probe and a FLIPR system. The CXCR-4 transfected U87 cell line (U87.CXCR4) cells were seeded in gelatine-coated black-wall 96-well plates at 20,000 cells per well and incubated for 12 hours. Cells were then loaded with the fluorescent calcium probe Fluo-2 acetoxymethyl at 4 μM final concentration in assay buffer (Hanks' balanced salt solution with 20 mM HEPES buffer and 0.2% bovine serum albumin, pH 7.4) for 45 min at 37° C. The intracellular calcium mobilization induced by the CXCL-12 (25-50 ng/mL) was then measured at 37° C. by monitoring the fluorescence as a function of time in all the wells simultaneously using a fluorometric imaging plate reader (FLIPR Tetra, Molecular Devices).

[2] = in vitro; details: human, Caco-2, pH 7.4
Method: Example 28: Caco-2 Permeability Assay
The goal of this assay was to evaluate the intestinal absorption potential of drug candidates using Caco-2 cell lines.
1. Prewarm Prewarm HBSS Buffer in 37° C. water bath
2. Sonicate Take compounds from −20° C., sonicate for a few minutes (no less than 1 minute)
HBSS buffer with 0.3% DMSO and 5 μM LY: add 150 μL DMSO and 50 μL LY (5 mM) into 50 ml HBSS buffer (pH 7.4).
HBSS buffer with 0.1% DMSO and 5 μM LY: add 50 μL DMSO and 50 μL LY (5 mM) into 50 mL HBSS buffer (pH 7.4).
HBSS buffer with 0.3% DMSO: add 150 μL DMSO into 50 ml HBSS buffer (pH 7.4).
HBSS buffer with 0.1% DMSO: add 50 μL DMSO into 50 ml HBSS buffer (pH 7.4).
Receiver Solution Buffer:
Prepare HBSS buffer with 0.4% DMSO: add 200 μL DMSO into 50 ml HBSS buffer (pH 7.4).
Prepare HBSS buffer with 0.4% DMSO and 5 μM LY: add 200 μL DMSO and 50 μL LY (5 mM) into 50 ml HBSS buffer (pH 7.4).
4. Measure TEER Take cell culture plate out of incubator, wash the cell monolayers with HBSS buffer, and then measure TEER values at Rm temperature. 5. Centrifuge Centrifuge the compound solution (from step 3) at 4000 rpm for 5 min before loading to donor chambers. 6. Dosing Add solution based on the volumes listed in the following table (make sure to take extra 100 μL of donor sample for TO as Backup).
7. Apical LYT0 Samples To determine LY concentration in the apical chember, take 100 μL sample from apical chambers into an opaque plate for LYT0. 8. Prewarm Prewarm apical and basolateral plates at 37° C. for about 5 min, then begin transport by placing the apical plate onto basolateral plate. 9. Incubation Keep the plates in incubator at 37° C. for 90 min. 10. Standard Curve Preparation
For 300 μM compound solution, add 6 μL of compound stock solution into 192 μL of MeOH/H2O (1:1).
Prepare Working Solution in MeOH/H2O (1:1)
3 μL (20×)+57 μL of 0.4% DMSO HBSS+60 μL ACN with IS (Osalmid or Imipramine) - - - 120 μL (1×)
11. Transport Termination Separate the apical plate from the basolateral plate after 90-min incubation.
12. Measure LY Take 100 μL samples from basolateral plate to an opaque plate as LYT90.
13. Measure LY concentrations for LYT0 and LYT90 by Fluorometer (at excitation of 485 nm/emission of 535 nm).
Study details: Test concentration 10 μM
Test systems: Caco-2/HBSS solution
Incubation conditions: 0, 90 min at 37° C.
Sample size: Duplicates (n=2)
Bioanalytical method: LC-MS/MS
For Millicell-24 Cell Culture Plates: surface area of the membrane=0.7 cm^2, VA=0.8 mL (A-to-B) or 0.4 mL (B-to-A)
1. Papp values were calculated based on calculated concentrations.
The compound numbers correspond to the compound numbers in Table 1.

[3] = target: Jurkat cells expressing CXCR4 (Homo sapiens (Human), UniProt P61073); assay: Chemokine (CXCL12-AF647) binding inhibition assay; details: CXCL12-AF647 25 ng/mL, read-out: IC50 CXCL-12 binding Jurkat
Method: Chemokine (CXCL12-AF647) Binding Inhibition Assay
Jurkat cells expressing CXCR4 were washed once with assay buffer (Hanks' balanced salt solution with 20 mM HEPES buffer and 0.2% bovine serum albumin, pH 7.4) and then incubated for 15 min at room temperature with the test compounds diluted in assay buffer at dose-dependent concentrations. Subsequently, CXCL12-AF647 (25 ng/mL) was added to the compound-incubated cells. The cells were incubated for 30 min at room temperature. Thereafter, the cells were washed twice in assay buffer, fixed in 1% paraformaldehyde in PBS, and analyzed on the FL4 channel of a FACSCalibur flow cytometer equipped with a 635-nm red diode laser (Becton Dickinson, San Jose, Calif., USA).
The percentages of inhibition of CXCL12-AF647 binding were calculated according to the formula: [1−((MFI−MFINC)/(MFIPC−MFINC))]×100 where MFI is the mean fluorescence intensity of the cells incubated with CXCL12-AF647 in the presence of the inhibitor, MFINC is the mean fluorescence intensity measured in the negative control (i.e., autofluorescence of unlabeled cells), and MFIPC is the mean fluorescence intensity of the positive control (i.e., cells exposed to CXCL12-AF647 alone).

Sequence of Jurkat cells expressing CXCR4 (P61073 whole entry): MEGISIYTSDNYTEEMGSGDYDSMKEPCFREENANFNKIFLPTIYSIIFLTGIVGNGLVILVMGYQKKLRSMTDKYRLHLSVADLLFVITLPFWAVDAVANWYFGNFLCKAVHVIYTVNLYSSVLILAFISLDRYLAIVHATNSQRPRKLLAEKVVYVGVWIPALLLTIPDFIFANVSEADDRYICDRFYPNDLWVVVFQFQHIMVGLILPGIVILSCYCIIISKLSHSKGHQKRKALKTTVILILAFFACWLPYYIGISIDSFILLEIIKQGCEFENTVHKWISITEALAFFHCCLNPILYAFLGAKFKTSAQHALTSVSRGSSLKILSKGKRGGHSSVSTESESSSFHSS
Sequence of CXCR-4 transfected U87 cell line (U87.CXCR4) (P61073 whole entry): as above

SMILES	IC50 [1] [nM]	Papp A→B at 90 min, 10 μM [2] [×10⁻⁶ cm/s]	Papp B→A at 90 min, 10 μM [2] [×10⁻⁶ cm/s]	efflux ratio at 90 min, 10 μM [2]	IC50 [3] [nM]	Papp at 90 min, 10 μM [2] [×10⁻⁶ cm/s]
Cc1cccnc1[C@H]1CCC[C@@H](c2nc3ccccn3c2CCCN2CCN(C)CC2)N1C (stereo in doubt) [Compound I-25]	0.01 to 100	0.1 to 10	10 to 30	> 30	0.01 to 100	–
Cc1cccnc1[C@H]1CCC[C@@H](c2nc3ccccn3c2CCCN)N1C (stereo in doubt) [Compound I-26]	100 to 1000	–	–	–	0.01 to 100	–
CNCCCc1c([C@@H]2CCC[C@H](c3ncccc3C)N2C)nc2ccccn12 (stereo in doubt) [Compound I-27]	0.01 to 100	0.1 to 10	0.1 to 10	10 to 30	0.01 to 100	–
Cc1cccnc1[C@H]1CCC[C@@H](c2nc3ccccn3c2CCCN(C)C)N1C (stereo in doubt) [Compound I-28]	100 to 1000	0.1 to 10	10 to 30	> 30	0.01 to 100	–
Cc1cccnc1[C@H]1CCC[C@@H](c2nc3cccc(N4CCN(C)CC4)n3c2F)N1C (stereo in doubt) [Compound I-34]	0.01 to 100	10 to 30	0.1 to 10	0.1 to 10	0.01 to 100	–
Cc1cccnc1[C@H]1CCC[C@@H](c2nc3cccc(N4CCN(C)CC4)n3c2C)N1 (stereo in doubt) [Compound I-192]	0.01 to 100	0.1 to 10	10 to 30	0.1 to 10	0.01 to 100	–
Cc1cccnc1[C@@H]1CCC[C@H](c2cn3c(N4CCN(C)CC4)cccc3n2)N1C [Compound I-1]	0.01 to 100	0.1 to 10	10 to 30	0.1 to 10	0.01 to 100	–
Cc1cccnc1[C@@H]1CCC[C@H](c2cn3ccccc3n2)N1CCCCN [Compound I-2]	100 to 1000	–	–	–	100 to 1000	–
Cc1cccnc1[C@@H]1CC(=O)C[C@H](c2cn3c(N4CCN(C)CC4)cccc3n2)N1C [Compound I-3]	0.01 to 100	0.1 to 10	0.1 to 10	0.1 to 10	0.01 to 100	–
Cc1cccnc1[C@@H]1CCC[C@H](c2nc3cccc(N4CCN(C)CC4)n3c2CO)N1C [Compound I-11]	0.01 to 100	0.1 to 10	10 to 30	0.1 to 10	0.01 to 100	–
COCc1c([C@H]2CCC[C@@H](c3ncccc3C)N2C)nc2cccc(N3CCN(C)CC3)n12 [Compound I-12]	0.01 to 100	0.1 to 10	10 to 30	0.1 to 10	0.01 to 100	–
CCN1CCN(c2cccc3nc([C@H]4CCC[C@@H](c5ncccc5C)N4C)cn23)CC1 [Compound I-13]	0.01 to 100	0.1 to 10	10 to 30	0.1 to 10	0.01 to 100	–
CCOCc1c([C@H]2CCC[C@@H](c3ncccc3C(C)C)N2C)nc2cccc(N3CCN(CC)CC3)n12 [Compound I-59]	≥ 1000	–	–	–	100 to 1000	–
CC(C)c1cccnc1[C@@H]1CCC[C@H](c2nc3cccc(N4CCN(C)CC4)n3c2CO)N1C [Compound I-74]	≥ 1000	–	–	–	100 to 1000	–
CN1CCN(c2cccc3nc([C@H]4CCC[C@@H](c5ncccc5C(F)(F)F)N4C)c(Cl)n23)CC1 [Compound I-119]	≥ 1000	–	–	–	0.01 to 100	–
CC[C@H]1OC(=O)[C@H](C)[C@@H](O[C@H]2C[C@@](C)(OC)[C@@H](O)[C@H](C)O2)[C@H](C)[C@@H](O[C@@H]2O[C@H](C)C[C@H](N(C)C)[C@H]2O)[C@](C)(O)C[C@@H](C)C(=O)[C@H](C)[C@@H](O)[C@]1(C)O [Erythromycin, reference compound]	–	–	–	> 116	–	–
COCCc1ccc(OCC(O)CNC(C)C)cc1 (centres unmarked) [Metoprolol, reference compound]	–	–	–	–	–	> 10

The remaining lines, values ahead:

IC50 [1] [nM]	Papp A→B at 90 min, 10 μM [2] [×10⁻⁶ cm/s]	Papp B→A at 90 min, 10 μM [2] [×10⁻⁶ cm/s]	efflux ratio at 90 min, 10 μM [2]	IC50 [3] [nM]	Papp at 90 min, 10 μM [2] [×10⁻⁶ cm/s]	SMILES
0.01 to 100	0.1 to 10	10 to 30	> 30	0.01 to 100	–	Cc1cccnc1[C@@H]1CCC[C@H](c2cn3c(N4CCNCC4)cccc3n2)N1C [Compound I-4]
100 to 1000	–	–	–	0.01 to 100	–	Cc1cccnc1[C@@H]1CCC[C@H](c2cn3c(-c4ccncc4)cccc3n2)N1C [Compound I-5]
≥ 1000	–	–	–	100 to 1000	–	Cc1cccnc1[C@@H]1CCC[C@H](c2cn3c(CCc4ccccn4)cccc3n2)N1C [Compound I-7]
0.01 to 100	–	–	–	0.01 to 100	–	Cc1cccnc1[C@@H]1CCC[C@H](c2cn3ccccc3n2)N1CCc1ccccn1 [Compound I-8]
0.01 to 100	10 to 30	10 to 30	0.1 to 10	0.01 to 100	–	Cc1cccnc1[C@@H]1CCC[C@H](c2cn3ccccc3n2)N1CCc1cnccn1 [Compound I-9]
0.01 to 100	–	–	–	0.01 to 100	–	Cc1cccnc1[C@@H]1CCC[C@H](c2cn3ccccc3n2)N1CCn1cccn1 [Compound I-10]
–	–	–	–	≥ 1000	–	Cc1cccnc1[C@@H]1CCC[C@H](c2nc3ccccn3c2-c2ccccn2)N1 [Compound I-209]
≥ 1000	–	–	–	100 to 1000	–	Cc1cccnc1[C@@H]1CCC[C@H](c2cn3c(N4CCN(C)CC4=O)cccc3n2)N1 [Compound I-211]
≥ 1000	–	–	–	≥ 1000	–	Cc1cccnc1[C@@H]1CCC[C@H](c2cn3c(-c4ccnn4C)cccc3n2)N1 [Compound I-212]
≥ 1000	–	–	–	≥ 1000	–	Cc1cccnc1[C@@H]1CCC[C@H](c2cn3c(-c4cncn4C)cccc3n2)N1 [Compound I-213]
≥ 1000	–	–	–	≥ 1000	–	Cc1cccnc1[C@@H]1CCC[C@H](c2cn3c(-c4ccncc4)cccc3n2)N1 [Compound I-214]
≥ 1000	–	–	–	≥ 1000	–	Cc1cccnc1[C@@H]1CCC[C@H](c2cn3c(-c4cccnc4)cccc3n2)N1 [Compound I-215]
≥ 1000	–	–	–	≥ 1000	–	Cc1cccnc1[C@@H]1CCC[C@H](c2cn3c(-c4ccccn4)cccc3n2)N1 [Compound I-216]
≥ 1000	–	–	–	≥ 1000	–	Cc1cccnc1[C@@H]1CCC[C@H](c2nc3ccccn3c2CCC#N)N1 [Compound I-219]
